# Molecular target: T1, human PAR4 (Homo sapiens, UniProt Q96RI0)
# T1 construct: expressed in transfected cells; host or cells: HEK293 PAR4 Clone 1.2A (BMS Arctic ID 383940)
# T1 sequence (Q96RI0 18-385): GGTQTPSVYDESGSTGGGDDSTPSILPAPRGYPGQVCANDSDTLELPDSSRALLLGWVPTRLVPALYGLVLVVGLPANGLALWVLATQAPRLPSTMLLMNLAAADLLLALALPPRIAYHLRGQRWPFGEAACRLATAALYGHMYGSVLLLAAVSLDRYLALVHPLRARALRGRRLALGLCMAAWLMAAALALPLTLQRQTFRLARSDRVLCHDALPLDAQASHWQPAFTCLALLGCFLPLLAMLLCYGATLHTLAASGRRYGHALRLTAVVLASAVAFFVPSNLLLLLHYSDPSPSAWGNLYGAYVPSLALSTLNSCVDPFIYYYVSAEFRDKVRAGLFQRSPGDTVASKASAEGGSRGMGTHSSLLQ
# Assay: PAR4 FLIPR assay: antagonism of agonist-peptide-induced calcium mobilization in PAR4-expressing HEK293 cells
# Type: cell-based
# Conditions: H-Ala-Phe(4-F)-[…]NH2-induced intracellular calcium mobilization, 11-point curves
row,Structure (SMILES),IC50 [nM]
1,"COc1cnc2c(-c3nc4c(C)cc(OCCOC(=O)Nc5cncc(C#N)c5)cc4s3)cc(C)cc2n1 [Example 116, 2-(2-(2-methoxy-7-methylquinoxalin-5-yl)-4-methylbenzo[d]thiazol-6-yloxy)ethyl 5-cyanopyridin-3-ylcarbamate]",1.4
2,"COc1cnc2c(-c3nc4c(C)cc(OCCOC(=O)Nc5ccc(C#N)nc5)cc4s3)cc(C)cc2n1 [Example 117, 2-((2-(2-methoxy-7-methylquinoxalin-5-yl)-4-methylbenzo[d]thiazol-6-yl)oxy)ethyl (6-cyanopyridin-3-yl)carbamate]",0.5
3,"COc1cnc2c(-c3nc4ccc(OCCOC(=O)Nc5cccc(C#N)c5)cc4s3)cc(C)cc2n1 [Example 118, 2-((2-(2-methoxy-7-methylquinoxalin-5-yl)benzo[d]thiazol-6-yl)oxy)ethyl (3-cyanophenyl)carbamate]",2.2
4,"COc1cnc2c(-c3nc4c(C)cc(OCCOC(=O)Nc5cnc(Cl)nc5)cc4s3)cc(C)cc2n1 [Example 119, 2-((2-(2-methoxy-7-methylquinoxalin-5-yl)-4-methylbenzo[d]thiazol-6-yl)oxy)ethyl (2-chloropyrimidin-5-yl)carbamate]",16
5,"COc1cnc2c(-c3cc4cc(OC)c(F)cc4o3)cc(C)cc2n1 [Example 120, 5-(6-fluoro-5-methoxybenzofuran-2-yl)-2-methoxy-7-methylquinoxaline]",28
6,"COCc1cnc2c(-c3cc4cc(OC)c(F)c(Cl)c4o3)cc(C)cc2n1 [Example 121, 5-(7-chloro-6-fluoro-5-methoxybenzofuran-2-yl)-2-(methoxymethyl)-7-methylquinoxaline]",0.7
7,"COc1cnc2c(-c3cc4cc(OC)c(F)c(Cl)c4o3)cc(C)cc2n1 [Example 122, 5-(7-chloro-6-fluoro-5-methoxybenzofuran-2-yl)-2-methoxy-7-methylquinoxaline]",3.9
8,"COc1cnc2c(-c3cc4cc(OCCOC(=O)Nc5ccnc(C)c5)c(F)cc4o3)cc(C)cc2n1 [Example 123, 2-((6-fluoro-2-(2-methoxy-7-methylquinoxalin-5-yl)benzofuran-5-yl)oxy)ethyl (2-methylpyridin-4-yl)carbamate]",1.5
9,"COc1cnc2c(-c3cc4cc(OC)c(F)c(Cl)c4o3)cc(CO)cc2n1 [Example 124, (8-(7-chloro-6-fluoro-5-methoxybenzofuran-2-yl)-3-methoxyquinoxalin-6-yl)methanol]",1.8
10,"COc1cnc2c(-c3cc4cc(OC)c(F)cc4o3)cc(CO)cc2n1 [Example 125, (8-(6-fluoro-5-methoxybenzofuran-2-yl)-3-methoxyquinoxalin-6-yl)methanol]",2
11,"COc1cnc2c(-c3cc4cc(OCCOC(=O)Nc5ccnc(C)c5)c(F)cc4o3)cc(CO)cc2n1 [Example 126, 2-((6-fluoro-2-(7-(hydroxymethyl)-2-methoxyquinoxalin-5-yl)benzofuran-5-yl)oxy)ethyl (2-methylpyridin-4-yl)carbamate]",1.2
12,COc1ccc2nc(-c3cc(CO)cc4nc(OC)cnc34)sc2c1 [Example 127],8.3
13,"COc1cnc2c(-c3nc4c(C)cc(OCCOC(=O)Nc5ccc(C)nc5)cc4s3)cc(CO)cc2n1 [Example 128, 2-(2-(7-(hydroxymethyl)-2-methoxyquinoxalin-5-yl)-4-methylbenzo[d]thiazol-6-yloxy)ethyl 6-methylpyridin-3-ylcarbamate]",2.2
14,"COc1cnc2c(-c3nc4c(C)cc(OCCOC(=O)Nc5ccnc(C)c5)cc4s3)cc(CO)cc2n1 [Example 129, 2-(2-(7-(hydroxymethyl)-2-methoxyquinoxalin-5-yl)-4-methylbenzo[d]thiazol-6-yloxy)ethyl 2-methylpyridin-4-ylcarbamate]",3.2
15,"COc1ccc2c(-c3cc4ccccc4o3)nc(C)cc2n1 [Example 130, 5-(benzofuran-2-yl)-2-methoxy-7-methyl-1,6-naphthyridine]",460
16,"C=Cc1cnc2c(-c3cc4ccccc4o3)cc(C)cc2n1 [Example 131, 5-(benzofuran-2-yl)-7-methyl-2-vinylquinoxaline]",890

# Reference: patent US12060347B2 (BRISTOL-MYERS SQUIBB COMPANY, priority 2016, dated 2024)
